# Source: patent US20100081162A1, “METHOD OF EVALUATING ANTIWRINKLE SUBSTANCE AND METHOD OF ASSESSING THE SKIN” (POLA CHEMICAL INDUSTRIES INC., priority 2007, published 2010)
# Columns and labels:
# [1] = tested on: collagen fiber bundles; assay: Tightness in collagen fiber bundles in collagen gel with NHDF in the presence of heparin (SEM); format: cell-based, human
# [2] = tested on: integrin gene; assay: Effect of farrerol on expression amount of integrin gene (real-time PCR); format: cell-based; conditions: normal human fibroblasts, 5 days
# Protocol: (§1) In the normal human fibroblasts cultivated in a culture solution with or without farrerol for 5 days, the expression amounts of the integrin gene and the type-I collagen gene as a main component of dermal collagen were evaluated by the real-time PCR. The procedure followed the procedure in Example 1 except for the used primer. It should be noted that the following QuantiTect (registered trademark) Primer Assays was used as a primer. […] Specifically, the expression amount of the β1 protein gene increased by a factor of about 1.9, the expression amount of the α2 protein gene increased by a factor of about 2.6, and the expression amount of the α5 protein gene increased by a factor of about 1.7.
# [3] = tested on: β1 protein gene (ITGB1); assay: Effect of farrerol on expression amount of β1 protein gene (real-time PCR); format: cell-based; conditions: normal human fibroblasts, 5 days
# Protocol: as §1
# [4] = tested on: α2 protein gene (ITGA2); assay: Effect of farrerol on expression amount of α2 protein gene (real-time PCR); format: cell-based; conditions: normal human fibroblasts, 5 days
# Protocol: as §1
# [5] = tested on: α5 protein gene (ITGA5); assay: Effect of farrerol on expression amount of α5 protein gene (real-time PCR); format: cell-based; conditions: normal human fibroblasts, 5 days
# Protocol: as §1
# [6] = tested on: type-I collagen gene (COL1A1, COL1A2); assay: Effect of farrerol on expression amount of type-I collagen gene (real-time PCR); format: cell-based; conditions: normal human fibroblasts, 5 days
# Protocol: as §1
Molecule,"effect on inhibition of tightness of collagen fiber bundles due to heparin ([1]; NHDF in collagen gel, 0.1% or 1% heparin, farrerol 10^−6% or 10^−7% at final, 5 days, SEM)","increase in the expression amount of the integrin gene (factor, with vs without farrerol) [2] [factor]",increase in the expression amount of the β1 protein gene (factor) [3],increase in the expression amount of the α2 protein gene (factor) [4],increase in the expression amount of the α5 protein gene (factor) [5],expression amount of the type-I collagen gene [6],effect on tightness in collagen fiber bundles ([1]; heparin alone)
Cc1c(O)c(C)c2c(c1O)C(=O)C[C@@H](c1ccc(O)cc1)O2 [farrerol],suppressed inhibition of tightness of collagen fiber bundles due to heparin,≥ 1.5,about 1.9 factor,about 2.6 factor,about 1.7 factor,not significantly increased,–
Heparin,–,–,–,–,–,–,inhibitory effect
